Literature values as cited in patent US20050272649A1, “Conjoint administration of morphogens and ACE inhibitors in treatment of chronic renal failure” (priority 2002, published 2005).
“Also recorded” adds a separate entry of the source. Where two headings read alike, the source gives them in different places.

Key:
AT1 receptor = biological target: T1, AT1 receptor (Homo sapiens, UniProt P30556); conditions: cited from earlier work
T1 sequence (P30556 1-359): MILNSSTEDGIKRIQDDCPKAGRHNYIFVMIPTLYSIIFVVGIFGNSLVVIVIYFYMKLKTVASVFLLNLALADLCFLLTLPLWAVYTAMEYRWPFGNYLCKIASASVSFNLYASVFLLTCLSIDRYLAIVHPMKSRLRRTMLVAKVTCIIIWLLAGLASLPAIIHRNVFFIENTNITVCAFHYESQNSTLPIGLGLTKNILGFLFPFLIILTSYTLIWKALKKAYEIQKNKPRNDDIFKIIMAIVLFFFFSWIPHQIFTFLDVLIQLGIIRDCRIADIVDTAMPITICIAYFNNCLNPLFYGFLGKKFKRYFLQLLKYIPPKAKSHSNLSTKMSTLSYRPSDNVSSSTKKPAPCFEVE

hypertension = conditions: cited from earlier work; for safety / tolerability (in words): clinical studies
[1] = oral administration; cited from earlier work
[2] = comparator and dosages as stated in the sentence
[3] = olmesartan medoxomil 20 mg starting dose

| SMILES | safety / tolerability (in words) (hypertension) | antihypertensive efficacy compared (in words) (hypertension; [2]) | oral absorption / bioavailability / pharmacokinetics (in words) [1] | also measured |
| --- | --- | --- | --- | --- |
| CCOc1nc2cccc(C(=O)O)c2n1Cc1ccc(-c2ccccc2-c2nnn[nH]2)cc1 [Candesartan] | both safe and well tolerated | Comparable reductions of diastolic blood pressure | poorly absorbed after oral administration | affinity for the AT1 receptor relative to affinity for the AT2 receptor (AT1 receptor): more than 10,000 times; diastolic blood pressure reduction, adjusted mean more than the 50-mg losartan dosage (hypertension; candesartan 16 mg per day): 3.7 mm Hg |
| CCCCC1=NC2(CCCC2)C(=O)N1Cc1ccc(-c2ccccc2-c2nnn[nH]2)cc1 [Irbesartan] | safe and effective | as effective as enalapril and atenolol in reducing blood pressure | – | affinity for the AT1 receptor relative to affinity for the AT2 receptor (AT1 receptor): more than 8,500 times; antihypertensive efficacy compared (in words) (hypertension; comparator and dosages as stated in the sentence, listed as irbesartan): significantly greater |
| CCCCc1nc(Cl)c(CO)n1Cc1ccc(-c2ccccc2-c2nn[nH]n2)cc1 [Losartan] | well tolerated | – | – | antihypertensive efficacy compared (in words) (hypertension; comparator and dosages): as efficacious as enalapril and nifedipine for lowering blood pressure; also recorded: no significant difference in antihypertensive efficacy; duration of activity for a dose (hypertension; losartan): 24 h |
| CCCc1nc2c(C)cc(-c3nc4ccccc4n3C)cc2n1Cc1ccc(-c2ccccc2C(=O)O)cc1 [Telmisartan] | side effect profile similar to that of placebo; also recorded: no rebound hypertension or first-dose orthostatic effect | slightly greater antihypertensive effect than enalapril | Nonlinear pharmacokinetics | – |
| CCCCC(=O)N(Cc1ccc(-c2ccccc2-c2nnn[nH]2)cc1)[C@H](C(=O)O)C(C)C [Valsartan] | both safe and effective | as effective as ACE inhibitors enalapril, lisinopril and amlodipine | – | – |
| CCOc1nc2cccc(C(=O)OC(C)OC(=O)OC3CCCCC3)c2n1Cc1ccc(-c2ccccc2-c2nnn[nH]2)cc1 (stereo not drawn) [candesartan cilexetil] | – | – | improves bioavailability; also recorded: conversion to the active compound occurs rapidly and completely | – |
| CCCc1nc(C(C)(C)O)c(C(=O)OCc2oc(=O)oc2C)n1Cc1ccc(-c2ccccc2-c2nnn[nH]2)cc1 [olmesartan medoxomil] | – | superior to losartan | – | reduction of diastolic pressure (average) (hypertension; [3]): 12 mm Hg; reduction of systolic pressure (average) (hypertension; [3]): 15 mm Hg |
